Data published in US10160747B2, “Compounds and methods for kinase modulation, and indications therefor” (Plexxikon Inc., priority 2016, dated 2018).

Columns and labels:
FLT3-D835Y = biological target: T1, FLT3-D835Y (Homo sapiens, UniProt P36888, D835Y); assay: FLT3-D835Y recombinant enzyme kinase assay (AlphaScreen); assay type: biochemical; details: 8 pt, GMean
T1 construct: purchased Invitrogen PV3967
T1 sequence (P36888 27-993 D835Y): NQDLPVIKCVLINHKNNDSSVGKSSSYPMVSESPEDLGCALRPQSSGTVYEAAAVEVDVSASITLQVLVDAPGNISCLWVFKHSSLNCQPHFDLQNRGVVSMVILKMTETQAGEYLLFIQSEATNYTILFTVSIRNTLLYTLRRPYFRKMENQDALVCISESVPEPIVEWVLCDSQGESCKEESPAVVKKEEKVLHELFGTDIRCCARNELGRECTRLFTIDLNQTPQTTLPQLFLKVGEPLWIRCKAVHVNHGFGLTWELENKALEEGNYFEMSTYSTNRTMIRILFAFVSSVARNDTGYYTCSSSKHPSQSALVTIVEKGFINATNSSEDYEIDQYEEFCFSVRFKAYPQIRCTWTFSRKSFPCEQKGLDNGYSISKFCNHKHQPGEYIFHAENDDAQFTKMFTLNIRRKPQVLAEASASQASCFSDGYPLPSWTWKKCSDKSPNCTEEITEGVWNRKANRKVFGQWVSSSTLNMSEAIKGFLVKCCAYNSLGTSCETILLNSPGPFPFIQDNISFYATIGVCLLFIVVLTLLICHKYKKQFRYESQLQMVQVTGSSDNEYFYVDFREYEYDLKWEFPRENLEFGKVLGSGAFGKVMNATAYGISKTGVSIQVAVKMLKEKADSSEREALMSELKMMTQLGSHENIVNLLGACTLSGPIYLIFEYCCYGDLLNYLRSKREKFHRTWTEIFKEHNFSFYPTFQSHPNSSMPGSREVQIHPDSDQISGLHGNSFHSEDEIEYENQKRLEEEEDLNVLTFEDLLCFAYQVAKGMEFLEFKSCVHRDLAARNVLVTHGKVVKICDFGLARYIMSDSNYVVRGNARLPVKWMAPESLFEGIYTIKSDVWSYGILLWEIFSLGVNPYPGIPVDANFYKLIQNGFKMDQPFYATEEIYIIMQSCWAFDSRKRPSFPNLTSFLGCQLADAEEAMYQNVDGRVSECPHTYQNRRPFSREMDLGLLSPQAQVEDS
Outline: (§1)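 Kinase activity of recombinant FLT3-ITD, FLT3-D835Y and c-KIT was followed via phosphotyrosine formation on a 30 nM biotin-peptide substrate, captured on streptavidin donor and anti-phosphotyrosine acceptor AlphaScreen beads. ATP was set at 10 μM for FLT3 and 100 μM for c-KIT.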

c-KIT = biological target: T2, c-KIT (Homo sapiens, UniProt P10721); assay: c-KIT recombinant enzyme kinase assay (AlphaScreen); assay type: biochemical; details: 100 ATP, 8 pt
T2 construct: purchased Millipore 14-559K
T2 sequence (P10721 26-976): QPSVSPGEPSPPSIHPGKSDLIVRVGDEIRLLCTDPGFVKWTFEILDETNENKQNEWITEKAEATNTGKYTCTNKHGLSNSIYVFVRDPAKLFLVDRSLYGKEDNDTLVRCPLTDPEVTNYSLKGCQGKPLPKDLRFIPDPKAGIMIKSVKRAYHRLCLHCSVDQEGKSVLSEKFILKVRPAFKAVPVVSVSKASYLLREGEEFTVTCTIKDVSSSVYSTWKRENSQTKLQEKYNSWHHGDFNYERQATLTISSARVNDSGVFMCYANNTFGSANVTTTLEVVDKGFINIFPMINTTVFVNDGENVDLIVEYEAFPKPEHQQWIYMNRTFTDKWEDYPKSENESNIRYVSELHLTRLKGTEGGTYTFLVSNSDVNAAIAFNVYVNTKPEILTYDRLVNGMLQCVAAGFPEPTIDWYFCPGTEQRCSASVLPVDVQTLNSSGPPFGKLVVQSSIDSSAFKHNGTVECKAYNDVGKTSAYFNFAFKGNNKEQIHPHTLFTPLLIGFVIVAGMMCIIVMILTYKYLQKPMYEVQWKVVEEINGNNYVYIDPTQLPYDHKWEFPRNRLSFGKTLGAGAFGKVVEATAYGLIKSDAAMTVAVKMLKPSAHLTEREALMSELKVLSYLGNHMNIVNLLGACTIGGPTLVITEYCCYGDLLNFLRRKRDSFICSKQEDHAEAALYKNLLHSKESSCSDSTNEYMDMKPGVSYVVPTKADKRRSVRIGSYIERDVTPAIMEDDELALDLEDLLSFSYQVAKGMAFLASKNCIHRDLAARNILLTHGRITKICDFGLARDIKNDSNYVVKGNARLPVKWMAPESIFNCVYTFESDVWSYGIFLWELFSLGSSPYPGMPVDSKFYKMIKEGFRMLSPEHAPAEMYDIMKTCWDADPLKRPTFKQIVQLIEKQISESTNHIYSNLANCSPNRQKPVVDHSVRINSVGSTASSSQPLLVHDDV
Outline: as §1

Row | SMILES | IC50 (FLT3-D835Y) [µM] | IC50 (c-KIT) [µM]
1 | COc1ncc(NC(=O)Cc2cc(F)c(-c3cnc(Nc4cnn(C)c4)nc3)cc2F)cc1C(F)(F)F [Compound P-0208, 2-[2,5-difluoro-4-[2-[(1-methylpyrazol-4-yl)amino]pyrimidin-5-yl]phenyl]-N-[6-methoxy-5-(trifluoromethyl)-3-pyridyl]acetamide] | 0.0001 to 10 | 0.0001 to 10
2 | COc1ncc(NC(=O)Cc2ccc(-c3cnc4[nH]c(-c5ccnc(C#N)c5)cc4c3)cc2F)cc1C(F)(F)F [Compound P-0013, 2-[4-[2-(2-cyano-4-pyridyl)-1H-pyrrolo[2,3-b]pyridin-5-yl]-2-fluoro-phenyl]-N-[6-methoxy-5-(trifluoromethyl)-3-pyridyl]acetamide] | 0.0001 to 10 | 0.0001 to 10
3 | Cn1cnc(Nc2ncc(-c3cc(F)c(CC(=O)Nc4cc(C(F)(F)F)ccn4)cc3F)cn2)c1 [Compound P-0020, 2-[2,5-difluoro-4-[2-[(1-methylimidazol-4-yl)amino]pyrimidin-5-yl]phenyl]-N-[4-(trifluoromethyl)-2-pyridyl]acetamide] | 0.0001 to 10 | 0.0001 to 10
4 | COc1ncc(NC(=O)Cc2ccc(-c3cnc4[nH]c(C#CC(C)(C)O)cc4c3)cc2)cc1C(F)(F)F [Compound P-0214, 2-(4-(2-(3-hydroxy-3-methylbut-1-yn-1-yl)-1H-pyrrolo[2,3-b]pyridin-5-yl)phenyl)-N-(6-methoxy-5-(trifluoromethyl)pyridin-3-yl)acetamide] | 0.0001 to 10 | 0.0001 to 10
5 | O=C(Cc1ccc(-c2cnc(Nc3cnn(C4CC4)c3)nc2)cc1F)Nc1ccc(C(F)(F)F)nc1 [Compound P-0242, 2-[4-[2-[(1-cyclopropylpyrazol-4-yl)amino]pyrimidin-5-yl]-2-fluoro-phenyl]-N-[6-(trifluoromethyl)-3-pyridyl]acetamide] | 0.0001 to 10 | 0.0001 to 10
6 | COc1ncc(NC(=O)Cc2ccc(-c3cnc4[nH]nc(C5CC5)c4c3)cc2)cc1C(F)(F)F [Compound P-0263, 2-[4-(3-cyclopropyl-1H-pyrazolo[3,4-b]pyridin-5-yl)phenyl]-N-[6-methoxy-5-(trifluoromethyl)-3-pyridyl]acetamide] | 0.0001 to 10 | 0.0001 to 10
7 | Cn1cc(Nc2ncc(-c3ccc(CC(=O)Nc4cncc(C(F)(F)F)c4)cc3F)cn2)cn1 [Compound P-0205, 2-[3-fluoro-4-[2-[(1-methylpyrazol-4-yl)amino]pyrimidin-5-yl]phenyl]-N-[5-(trifluoromethyl)-3-pyridyl]acetamide] | 0.0001 to 10 | 0.0001 to 10
8 | CCOc1n[nH]c2ncc(-c3ccc(CC(=O)Nc4cnc(OC)c(C(F)(F)F)c4)cc3F)cc12 [Compound P-0202, 2-[4-(3-ethoxy-1H-pyrazolo[3,4-b]pyridin-5-yl)-3-fluoro-phenyl]-N-[6-methoxy-5-(trifluoromethyl)-3-pyridyl]acetamide] | 0.0001 to 10 | 0.0001 to 10
9 | CCn1cc(Nc2ncc(-c3cc(F)c(CC(=O)Nc4cnc(C)c(C(F)(F)F)c4)cc3F)cn2)cn1 [Compound P-0249, 2-[4-[2-[(1-ethylpyrazol-4-yl)amino]pyrimidin-5-yl]-2,5-difluoro-phenyl]-N-[6-methyl-5-(trifluoromethyl)-3-pyridyl]acetamide] | 0.0001 to 10 | 0.0001 to 10
10 | CC(C)(O)C#Cc1cc2cc(-c3ccc(CC(=O)Nc4cncc(C(F)(F)F)c4)cc3)cnc2[nH]1 [Compound P-0204, 2-[4-[2-(3-hydroxy-3-methyl-but-1-ynyl)-1H-pyrrolo[2,3-b]pyridin-5-yl]phenyl]-N-[5-(trifluoromethyl)-3-pyridyl]acetamide] | 0.0001 to 10 | 0.0001 to 10
11 | O=C(Cc1ccc(-c2cnc3[nH]c(-c4ccnc(N5CCOCC5)c4)cc3c2)c(F)c1)Nc1cncc(C(F)(F)F)c1 [Compound P-0201, 2-[3-fluoro-4-[2-(2-morpholino-4-pyridyl)-1H-pyrrolo[2,3-b]pyridin-5-yl]phenyl]-N-[5-(trifluoromethyl)-3-pyridyl]acetamide] | 0.0001 to 10 | 0.0001 to 10

Now from value to compound:

Row | IC50 (FLT3-D835Y) [µM] | IC50 (c-KIT) [µM] | SMILES
12 | 0.0001 to 10 | 0.0001 to 10 | CCn1cc(Nc2ncc(-c3cc(F)c(CC(=O)Nc4cnc(OC)c(C(F)(F)F)c4)cc3F)cn2)cn1 [Compound P-0247, 2-[4-[2-[(1-ethylpyrazol-4-yl)amino]pyrimidin-5-yl]-2,5-difluoro-phenyl]-N-[6-methoxy-5-(trifluoromethyl)-3-pyridyl]acetamide]
13 | 0.0001 to 10 | 0.0001 to 10 | CCn1cc(Nc2ncc(-c3ccc(CC(=O)Nc4cnc(C)c(C(F)(F)F)c4)cc3)cn2)cn1 [Compound P-0254, 2-[4-[2-[(1-ethylpyrazol-4-yl)amino]pyrimidin-5-yl]phenyl]-N-[6-methyl-5-(trifluoromethyl)-3-pyridyl]acetamide]
14 | 0.0001 to 10 | 0.0001 to 10 | Cc1ncc(NC(=O)Cc2ccc(-c3cnc(Nc4cnn(C)c4C)nc3)cc2)cc1C(F)(F)F [Compound P-0229, 2-[4-[2-[(1,5-dimethylpyrazol-4-yl)amino]pyrimidin-5-yl]phenyl]-N-[6-methyl-5-(trifluoromethyl)-3-pyridyl]acetamide]
15 | 0.0001 to 10 | 0.0001 to 10 | O=C(Cc1ccc(-c2cnc(Nc3cnn(C4CC4)c3)nc2)cc1)Nc1ccc(C(F)(F)F)cn1 [Compound P-0236, 2-[4-[2-[(1-cyclopropylpyrazol-4-yl)amino]pyrimidin-5-yl]phenyl]-N-[5-(trifluoromethyl)-2-pyridyl]acetamide]
16 | 0.0001 to 10 | 0.0001 to 10 | COCCn1cc(Nc2ncc(-c3ccc(CC(=O)Nc4cnc(OC)c(C(F)(F)F)c4)cc3)cn2)cn1 [Compound P-0271, 2-[4-[2-[[1-(2-methoxyethyl)pyrazol-4-yl]amino]pyrimidin-5-yl]phenyl]-N-[6-methoxy-5-(trifluoromethyl)-3-pyridyl]acetamide]
17 | 0.0001 to 10 | 0.0001 to 10 | O=C(Cc1ccc(-c2cnc(Nc3cnn(C4CC4)c3)nc2)cc1)Nc1ccc(C(F)(F)F)nc1 [Compound P-0235, 2-[4-[2-[(1-cyclopropylpyrazol-4-yl)amino]pyrimidin-5-yl]phenyl]-N-[6-(trifluoromethyl)-3-pyridyl]acetamide]
18 | 0.0001 to 10 | 0.0001 to 10 | O=C(Cc1ccc(-c2cnc(Nc3cnn(C4CC4)c3)nc2)cc1)Nc1cnc(Cl)c(C(F)(F)F)c1 [Compound P-0233, N-[6-chloro-5-(trifluoromethyl)-3-pyridyl]-2-[4-[2-[(1-cyclopropylpyrazol-4-yl)amino]pyrimidin-5-yl]phenyl]acetamide]
19 | 0.0001 to 10 | 0.0001 to 10 | COCCn1cc(Nc2ncc(-c3ccc(CC(=O)Nc4cc(C(F)(F)F)ccn4)cc3)cn2)cn1 [Compound P-0222, 2-[4-[2-[[1-(2-methoxyethyl)pyrazol-4-yl]amino]pyrimidin-5-yl]phenyl]-N-[4-(trifluoromethyl)-2-pyridyl]acetamide]
20 | 0.0001 to 10 | 0.0001 to 10 | Cc1ncc(NC(=O)Cc2ccc(-c3cnc(Nc4cnn(C(F)F)c4)nc3)cc2)cc1C(F)(F)F [Compound P-0210, 2-[4-[2-[[1-(difluoromethyl)pyrazol-4-yl]amino]pyrimidin-5-yl]phenyl]-N-[6-methyl-5-(trifluoromethyl)-3-pyridyl]acetamide]
21 | 0.0001 to 10 | 0.0001 to 10 | CCn1cc(Nc2ncc(-c3ccc(CC(=O)Nc4cnc(C)c(C(F)(F)F)c4)cc3F)cn2)cn1 [Compound P-0248, 2-[4-[2-[(1-ethylpyrazol-4-yl)amino]pyrimidin-5-yl]-3-fluoro-phenyl]-N-[6-methyl-5-(trifluoromethyl)-3-pyridyl]acetamide]
22 | 0.0001 to 10 | 0.0001 to 10 | CCn1cc(Nc2ncc(-c3ccc(CC(=O)Nc4cnc(OC)c(C(F)(F)F)c4)cc3)cn2)cn1 [Compound P-0253, 2-[4-[2-[(1-ethylpyrazol-4-yl)amino]pyrimidin-5-yl]phenyl]-N-[6-methoxy-5-(trifluoromethyl)-3-pyridyl]acetamide]
23 | 0.0001 to 10 | 0.0001 to 10 | CCn1cc(Nc2ncc(-c3ccc(CC(=O)Nc4cncc(C(F)(F)F)c4)c(F)c3)cn2)cn1 [Compound P-0258, 2-[4-[2-[(1-ethylpyrazol-4-yl)amino]pyrimidin-5-yl]-2-fluoro-phenyl]-N-[5-(trifluoromethyl)-3-pyridyl]acetamide]
24 | 0.0001 to 10 | 0.0001 to 10 | O=C(Cc1ccc(-c2cnc(Nc3cnn(C4CC4)c3)nc2)cc1)Nc1cc(C(F)(F)F)ccn1 [Compound P-0237, 2-[4-[2-[(1-cyclopropylpyrazol-4-yl)amino]pyrimidin-5-yl]phenyl]-N-[4-(trifluoromethyl)-2-pyridyl]acetamide]
